These results are taken from US8980879B2 (AbbVie Inc., priority 2013, dated 2015).

One experiment concerns the target T1, BRD4 (BDI_K57-E168) (Homo sapiens, UniProt O60885).
T1 construct: BD1: amino acids K57-E168; made in house
The experiment can be described thus: TR-FRET bromodomain binding assay, BRD4 first bromodomain. The note with it: His-tagged BD1, 100 nM Alexa647 probe; assay protocol D or F as given per row in c1; Ki calculated from IC50. As for the experimental part: (§1) A time-resolved fluorescence resonance energy transfer (TR-FRET) assay was used to determine the affinities of compounds of the Examples listed in Table 1 for each bromodomain of BRD4. His-tagged first (BD1: amino acids K57-E168) and second (BD2: amino acids E352-E168) bromodomains of BRD4 were expressed and purified. An Alexa647-labeled BET-inhibitor was used as the fluorescent probe in the assay.
(§2) Compound dilution series were prepared in DMSO via an approximately 3-fold serial dilution from one of the following:
(§3) Assay method D: 500 μM-8.5 nM
(§4) Assay method E: 0.47 mM to 7.8 nM
(§5) Assay method F: 250 μM-4.2 nM
(§6) Assay method G: 0.047 mM to 0.78 nM
(§7) or 5-fold serial dilution from one of the following:
(§8) Assay method A: 2.5 mM-800 nM
(§9) Assay method B: 2.5 mM-797 nM
(§10) For Assay methods A, C, D, and F: Compounds were then diluted 6:100 in assay buffer (20 mM Sodium Phosphate, pH 6.0, 50 mM NaCl, 1 mM Ethylenediaminetetraacetic acid, 0.01% Triton X-100, 1 mM DL-Dithiothreitol) to yield 3× working solutions. Six microliters (μL) of the working solution was then transferred to white, low-volume assay plates (Costar #3673). A 1.5× assay mixture containing His-tagged bromodomain, Europium-conjugated anti-His antibody (Invitrogen PV5596) and the Alexa-647-conjugated probe molecule was also prepared. Twelve μL of this solution were added to the assay plate to reach a final volume of 18 μL.
(§11) For Assay methods B, E, and G: Compound dilutions were added directly into white, low-volume assay plates (Perkin Elmer Proxiplate 384 Plus#6008280) using a Labcyte Echo in conjunction with Labcyte Access and Thermo Multidrop CombinL robotics. Compounds were then suspended in eight microliters (μL) of assay buffer (20 mM Sodium Phosphate, pH 6.0, 50 mM NaCl, 1 mM Ethylenediaminetetraacetic acid disodium salt dihydrate, 0.01% Triton X-100, 1 mM DL-Dithiothreitol) containing His-tagged bromodomain, Europium-conjugated anti-His antibody (Invitrogen PV5596) and Alexa-647-conjugated probe.
(§12) The final concentration of 1× assay mixture for assay methods A, B, C, D, E, F, and G contains 2% DMSO, 8 nM His-tagged bromodomain, 1 nM Europium-conjugated anti-His-tag antibody and 100 nM or 30 nM probe (for BDI or BDII, respectively) and compound concentration in the range of: 50 μM-16 nM for method A, 49.02 μM-15.63 nM for method B, 25 μM-423 pM for method C, 10 μM-169 pM for method D, 9.19 μM 150 pM for method E, 5 μM-85 pM for method F, and 0.92 μM-15 pM for method G.
(§13) After a one-hour equilibration at room temperature, TR-FRET ratios were determined using an Envision multilabel plate reader (Ex 340, Em 495/520).
(§14) TR-FRET data were normalized to the means of 24 no-compound controls (“high”) and 8 controls containing 1 μM un-labeled probe (“low”). Percent inhibition was plotted as a function of compound concentration and the data were fit with the 4 parameter logistic equation to obtain IC50s Inhibition constants (Ki) were calculated from the IC50s, probe Kd and probe concentration. Typical Z′ values were between 0.65 and 0.75. The minimum significant ratio was determined to evaluate assay reproducibility (Eastwood et al., (2006) J Biomol Screen, 11: 253-261). The MSR was determined to be 2.03 for BDI and 1.93 for BDII, and a moving MSR (last six run MSR overtime) for both BDI and BDII was typically <3.

A further experiment has as its target T2, BRD4 (BDII_E352-M457) (Homo sapiens, UniProt O60885).
T2 construct: protocol; made in house
The experiment can be described thus: TR-FRET bromodomain binding assay, BRD4 second bromodomain. The protocol: as §1, §2, §3, §4, §5, §6, §7, §8, §9, §10, §11, §12, §13, §14
A general note: In TR-FRET formats the signal depends on donor and acceptor labels being close together.

For experiment [1], the system named is breast cancer cell line MX-1. The experiment is described as follows: MX-1 cell line proliferation assay. The format is cell-based. The note with it: Homo sapiens, MX1; MX-1 cells, 3-day (72 h) proliferation, Cell Titer Glo; read-out: Cellular proliferation: EC50. As for the experimental part: MX-1 Cell Line Proliferation Assay
The impact of compounds of the Examples on cancer cell proliferation was determined using the breast cancer cell line MX-1 (ATCC) in a 3-day proliferation assay and the data are reported in Table 1. MX-1 cells were maintained in RPMI 1640 medium (Sigma) supplemented with 10% FBS at 37 C.° and an atmosphere of 5% CO2. For compound testing, MX-1 cells were plated in 96-well black bottom plates at a density of 5000 cells/well in 90 μL of culture media and incubated at 37° overnight to allow cell adhesion and spreading. Compound dilution series were prepared in DMSO via a 3-fold serial dilution from 3 mM to 0.1 μM. The DMSO dilution series were then diluted 1:100 in phosphate buffered saline, and 10 μL of the resulted solution were added to the appropriate wells of the MX-1 cell plate. The final compound concentrations in the wells were 3, 1, 0.3, 0.1, 0.03, 0.01, 0.003, 0.001, 0.0003 and 0.0001 μM.
Luminescence readings from the Cell Titer Glo assay were normalized to the DMSO treated cells and analyzed using the GraphPad Prism software with sigmoidal curve fitting to obtain EC50s. The minimum significant ratio (MSR) was determined to evaluate assay reproducibility (Eastwood et al., (2006) J Biomol Screen, 11: 253-261). The overall MSR was determined to be 2.1 and a moving MSR (last six run MSR overtime) has been <2.
For orientation: In ATP-based viability assays light output follows the ATP content of the culture.

The structures appear in SMILES notation. Where only a bound is given, the exact number is not on record here.

Usually Ki stands for the equilibrium dissociation constant of an inhibitor or competing ligand from its target. With `Cn1cc2c3c(c[nH]c(=O)c31)CN(c1ccc(F)cc1)c1ncc(NC(=O)Cn3ccc(-c4ccccc4F)n3)cc1-2` [Example 19], the Ki on BRD4 (BDI_K57-E168) is 1.32 nM; at BRD4 (BDII_E352-M457), 11.6 nM. Besides, in experiment [1], the EC50 amounted to 68.7 nM.

Take `Cn1cc2c3c(c[nH]c(=O)c31)C(c1ccccc1)N(c1ccc(F)cc1)c1ccc(Cl)cc1-2` (stereo not drawn) [Example 24]: the inhibition constant (Ki) was 178 nM on BRD4 (BDI_K57-E168) and above 408 nM at BRD4 (BDII_E352-M457).

For `Cn1cc2c3c(c[nH]c(=O)c31)CN(c1ccc(F)cc1)c1ccc(NC(=O)Cc3ccc(Cl)cc3F)cc1-2` [Example 29], the Ki was 3.03 nM at BRD4 (BDI_K57-E168) and 22.4 nM at BRD4 (BDII_E352-M457).

Regarding `Cn1cc2c3c(c[nH]c(=O)c31)CN(c1ccc(F)cc1)c1ccc(NC(=O)Cn3ccc(-c4ccccc4F)n3)cc1-2` [Example 31], the inhibition constant Ki on BRD4 (BDI_K57-E168) was 11.5 nM; at BRD4 (BDII_E352-M457) it was 79.5 nM.

`COc1cccc(NC(=O)Nc2ccc3c(c2)-c2cn(C)c4c(=O)[nH]cc(c24)CN3c2ccc(F)cc2)c1` [Example 45]: the Ki at BRD4 (BDI_K57-E168) is 7.12 nM; on BRD4 (BDII_E352-M457), 130 nM.

For the compound `Cn1cc2c3c(c[nH]c(=O)c31)CN(c1ccc(F)cc1)c1ccc(NC(=O)Cc3ccc4c(c3)CCCO4)cc1-2` [Example 46], the figures for the Ki at BRD4 (BDI_K57-E168) and on BRD4 (BDII_E352-M457) were 3.29 nM and 19.7 nM, respectively.

On to `Cn1cc2c3c(c[nH]c(=O)c31)CN(c1ccc(F)cc1)c1ccc(NC(=O)Cc3cc(F)ccc3C(F)(F)F)cc1-2` [Example 51], for which the Ki on BRD4 (BDI_K57-E168) is 5.12 nM; on BRD4 (BDII_E352-M457), 84.8 nM.

Regarding `Cc1ccc(C)c(CC(=O)Nc2ccc3c(c2)-c2cn(C)c4c(=O)[nH]cc(c24)CN3c2ccc(F)cc2)c1` [Example 53], the Ki at BRD4 (BDI_K57-E168) is 2.61 nM; at BRD4 (BDII_E352-M457), 50.1 nM.

`Cn1cc2c3c(c[nH]c(=O)c31)CN(c1ccc(F)cc1)c1ccc(NC(=O)Cc3ccccc3)cc1-2` [Example 54]: the values for the inhibitory constant (Ki) at BRD4 (BDI_K57-E168) and on BRD4 (BDII_E352-M457) were 2.07 nM and 17.9 nM, respectively.

In the case of `Cn1cc2c3c(c[nH]c(=O)c31)CN(c1ccc(F)cc1)c1ccc(NC(=O)Cc3cc(Cl)ccc3Oc3ccccc3)cc1-2` [Example 55], the Ki was 9.31 nM at BRD4 (BDI_K57-E168) and 240 nM on BRD4 (BDII_E352-M457).

For the compound `COc1ccc(F)cc1CNC(=O)c1ccc2c(c1)-c1cn(C)c3c(=O)[nH]cc(c13)CN2c1ccc(F)cc1` [Example 56], the Ki was 1.74 nM at BRD4 (BDI_K57-E168) and 57.4 nM at BRD4 (BDII_E352-M457).

As for `CC(NC(=O)c1ccc2c(c1)-c1cn(C)c3c(=O)[nH]cc(c13)CN2c1ccc(F)cc1)c1ccc(F)cc1` (stereo not drawn) [Example 59], the Ki at BRD4 (BDI_K57-E168) was 2.89 nM; at BRD4 (BDII_E352-M457), 71.5 nM.

`CC(NC(=O)c1ccc2c(c1)-c1cn(C)c3c(=O)[nH]cc(c13)CN2c1ccc(F)cc1)c1ccc(Cl)cc1Cl` (stereo not drawn) [Example 61]: the Ki was 5.17 nM at BRD4 (BDI_K57-E168) and 147 nM on BRD4 (BDII_E352-M457).

Take `Cn1cc2c3c(c[nH]c(=O)c31)CN(c1ccc(F)cc1)c1ccc(C(=O)NCc3cc(F)ccc3F)cc1-2` [Example 64]: the Ki on BRD4 (BDI_K57-E168) is 1.73 nM; on BRD4 (BDII_E352-M457), 46.9 nM.

For the compound `Cn1cc2c3c(c[nH]c(=O)c31)CN(c1ccc(F)cc1F)c1ncc(N)cc1-2` [Example 67], the results for the Ki on BRD4 (BDI_K57-E168) and on BRD4 (BDII_E352-M457) were 21.2 nM and 7 nM, respectively.

Regarding `CC(=O)N1CCC(N2Cc3c[nH]c(=O)c4c3c(cn4C)-c3cc(N)ccc32)CC1` [Example 73], the Ki at BRD4 (BDI_K57-E168) was 7.08 nM; on BRD4 (BDII_E352-M457) it was 41.8 nM.
